In US20230312587A1, “PTERIDINONE COMPOUNDS AND USES THEREOF” (Vertex Pharmaceutical Incorporated, priority 2018, published 2023):
pIC50: −log10 of the molar value.

system: β-catenin-TCF-mediated reporter transcription activity in Colo 205 cells; assay: Colo 205 reporter assay (TCF/LEF luciferase); format: cell-based; conditions: Homo sapiens, COLO 205, 5 h, Colo 205 TCF/LEF luciferase reporter, five hours after addition of compound; read-out: TCF reporter Colo205 IC50
Method in brief: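 Luciferase signal from a TCF/LEF-driven reporter, stably integrated in Colo 205 colon cancer cells, was measured 5 h after compound addition.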

Row | pIC50 | Compound
1 | > 6.52 | Cc1nc(N[C@H]2CC[C@H](Oc3cc(F)c(F)c(F)c3)C2)nc2c1N(C)C(=O)[C@H](C)N2C [Compound 273, (S)-4,5,7,8-tetramethyl-2-(((1S,3S)-3-(3,4,5-trifluorophenoxy)cyclopentyl)amino)-7,8-dihydropteridin-6(5H)-one]
2 | 6.00 to 6.52 | Cc1nc(NC2CN(C(=O)c3ccc(F)cc3)C2)nc2c1NC(=O)[C@H](C(C)C)N2C [Compound 548, (S)-2-((1-(4-fluorobenzoyl)azetidin-3-yl)amino)-7-isopropyl-4,8-dimethyl-7,8-dihydropteridin-6(5H)-one]
3 | 5.30 to 6.00 | COc1ccc(O[C@H]2C[C@H](Nc3nc(C)c4c(n3)N(C)[C@@H](C)C(=O)N4)C2)cc1 [Compound 342, (7S)-2-((trans-3-(4-methoxyphenoxy)cyclobutyl)amino)-4,7,8-trimethyl-7,8-dihydropteridin-6(5H)-one]
4 | > 6.52 | Cc1nc(N[C@H]2C[C@@H](Nc3cc(C(F)(F)F)ccn3)C2)nc2c1NC(=O)[C@H](C(C)C)N2C [Compound 561, (S)-7-isopropyl-4,8-dimethyl-2-((cis-3-((4-(trifluoromethyl)pyridin-2-yl)amino)cyclobutyl)amino)-7,8-dihydropteridin-6(5H)-one]
5 | 6.00 to 6.52 | Cc1nc(N[C@H]2C[C@H](n3nccc3C(F)(F)F)C2)nc2c1NC(=O)[C@H](C(C)C)N2C [Compound 673, (7S)-7-isopropyl-4,8-dimethyl-2-((trans-3-(5-(trifluoromethyl)-1H-pyrazol-1-yl)cyclobutyl)amino)-7,8-dihydropteridin-6(5H)-one]
6 | ≤ 5.30 | Cc1nc(N[C@H]2C[C@@H](COc3ccnn3C)C2)nc2c1NC(=O)[C@H](C(C)C)N2C [Compound 693, (S)-7-isopropyl-4,8-dimethyl-2-((cis-3-(((1-methyl-1H-pyrazol-5-yl)oxy)methyl)cyclobutyl)amino)-7,8-dihydropteridin-6(5H)-one]
7 | 6.00 to 6.52 | Cc1nc(NC2CN(C(=O)CC3CC4CCC3C4)C2)nc2c1NC(=O)[C@H](C(C)C)N2C (stereo partly drawn) [Compound 623, (7S)-2-((1-(2-(bicyclo[2.2.1]heptan-2-yl)acetyl)azetidin-3-yl)amino)-7-isopropyl-4,8-dimethyl-7,8-dihydropteridin-6(5H)-one]
8 | > 6.52 | Cc1nc(NCc2cnn(Cc3cnc(C(F)(F)F)c(F)c3)c2)nc2c1NC(=O)[C@H](C)N2C [Compound 209, (7S)-2-(((1-((5-fluoro-6-(trifluoromethyl)pyridin-3-yl)methyl)-1H-pyrazol-4-yl)methyl)amino)-4,7,8-trimethyl-7,8-dihydropteridin-6(5H)-one]
9 | 6.00 to 6.52 | COCC1(C)C(=O)Nc2c(C)nc(NCc3cnn(Cc4ccc(C(F)(F)F)nc4)c3)nc2N1C (centres unmarked) [Compound 703, 7-(methoxymethyl)-4,7,8-trimethyl-2-(((1-((6-(trifluoromethyl)pyridin-3-yl)methyl)-1H-pyrazol-4-yl)methyl)amino)-7,8-dihydropteridin-6(5H)-one]
10 | > 6.52 | Cc1nc(NCc2ccc(OC3CCN(c4ccc(F)cc4)C3)nc2)nc2c1NC(=O)[C@H](C)N2C (stereo partly drawn) [Compound 169, (7S)-2-(((6-((1-(4-fluorophenyl)pyrrolidin-3-yl)oxy)pyridin-3-yl)methyl)amino)-4,7,8-trimethyl-7,8-dihydropteridin-6(5H)-one]
11 | > 6.52 | CCn1nc(C(F)(F)F)cc1Cn1cc(CNc2nc(C)c3c(n2)N(C)[C@@H](C)C(=O)N3)cn1 [Compound 189, (7S)-2-(((1-((1-ethyl-3-(trifluoromethyl)-1H-pyrazol-5-yl)methyl)-1H-pyrazol-4-yl)methyl)amino)-4,7,8-trimethyl-7,8-dihydropteridin-6(5H)-one]
12 | > 6.52 | C[C@H]1C(=O)Nc2cnc(NCc3cnn(Cc4cccc(C(F)(F)F)c4)c3)nc2N1C [Compound 45, (7S)-7,8-dimethyl-2-(((1-(3-(trifluoromethyl)benzyl)-1H-pyrazol-4-yl)methyl)amino)-7,8-dihydropteridin-6(5H)-one]
13 | ≤ 5.30 | Cc1nc(NCc2cnn(Cc3ccc(C(F)(F)F)nc3)c2)nc2c1NC(=O)[C@H](CCO)N2 [Compound 439, (S)-7-(2-hydroxyethyl)-4-methyl-2-(((1-((6-(trifluoromethyl)pyridin-3-yl)methyl)-1H-pyrazol-4-yl)methyl)amino)-7,8-dihydropteridin-6(5H)-one]
14 | 6.00 to 6.52 | Cc1nc(N[C@@H]2CCN(C(=O)c3cc(F)c(F)c(F)c3)C2)nc2c1NC(=O)[C@H](C(C)C)N2C [Compound I-541]
15 | > 6.52 | Cc1nc(N[C@H]2C[C@@H](NCc3cc(F)c(F)c(F)c3)C2)nc2c1NC(=O)[C@H](C(C)C)N2C [Compound 536, (S)-7-isopropyl-4,8-dimethyl-2-((cis-3-((3,4,5-trifluorobenzyl)amino)cyclobutyl)amino)-7,8-dihydropteridin-6(5H)-one]
16 | 6.00 to 6.52 | CO[C@H](C)[C@H]1C(=O)N(C)c2cnc(NCc3cnn(Cc4ccc(F)cc4)c3)nc2N1C [Compound 20, (7S)-2-(((1-(4-fluorobenzyl)-1H-pyrazol-4-yl)methyl)amino)-7-((R)-1-methoxyethyl)-5,8-dimethyl-7,8-dihydropteridin-6(5H)-one]
17 | 6.00 to 6.52 | Cc1nc(N[C@H]2C[C@@H](Sc3ccc(F)cc3)C2)nc2c1NC(=O)[C@H](C)N2C [Compound 304, (7S)-2-((cis-3-((4-fluorophenyl)thio)cyclobutyl)amino)-4,7,8-trimethyl-7,8-dihydropteridin-6(5H)-one]
18 | > 6.52 | Cc1nc(N[C@H]2C[C@@H](NC(=O)Nc3ccc(C(F)(F)F)nc3)C2)nc2c1NC(=O)[C@H](C)N2C [Compound 473, 1-(6-(trifluoromethyl)pyridin-3-yl)-3-(cis-3-(((S)-4,7,8-trimethyl-6-oxo-5,6,7,8-tetrahydropteridin-2-yl)amino)cyclobutyl)urea]
19 | ≤ 5.30 | COc1ccc(N[C@H]2C[C@@H](Nc3nc(C)c4c(n3)N(C)[C@@H](C(C)C)C(=O)N4)C2)nc1 [Compound 733, (S)-7-isopropyl-2-((cis-3-((5-methoxypyridin-2-yl)amino)cyclobutyl)amino)-4,8-dimethyl-7,8-dihydropteridin-6(5H)-one]
20 | 6.00 to 6.52 | Cc1nc(N[C@H]2C[C@@H](Cn3cc(F)cn3)C2)nc2c1NC(=O)[C@H](C)N2C [Compound 279, (7S)-2-((cis-3-((4-fluoro-1H-pyrazol-1-yl)methyl)cyclobutyl)amino)-4,7,8-trimethyl-7,8-dihydropteridin-6(5H)-one]
21 | > 6.52 | [2H]C([2H])([2H])N1C(=O)[C@H](C)N(C)c2nc(N[C@H]3C[C@H](Oc4cc(F)c(F)c(F)c4)C3)nc(C)c21 [Compound 327, (7S)-4,7,8-trimethyl-5-(methyl-d3)-2-((trans-3-(3,4,5-trifluorophenoxy)-cyclobutyl)-amino)-7,8-dihydropteridin-6(5H)-one]
22 | 6.00 to 6.52 | Cc1nc(N[C@H]2C[C@@H](Nc3nccc(C(F)(F)F)n3)C2)nc2c1NC(=O)[C@H](C(C)C)N2C [Compound 527, (S)-7-isopropyl-4,8-dimethyl-2-((cis-3-((4-(trifluoromethyl)pyrimidin-2-yl)amino)cyclobutyl)amino)-7,8-dihydropteridin-6(5H)-one]
23 | > 6.52 | COc1ccc(Cn2cc(CNc3nc(C)c4c(n3)N(C)[C@@H](C)C(=O)N4)cn2)cn1 [Compound 197, (7S)-2-(((1-((6-methoxypyridin-3-yl)methyl)-1H-pyrazol-4-yl)methyl)amino)-4,7,8-trimethyl-7,8-dihydropteridin-6(5H)-one]
24 | > 6.52 | Cc1nc(NC2CN(C(=O)c3cccc(C(F)(F)F)c3)C2)nc2c1NC(=O)[C@H](C(C)C)N2C [Compound 635, (S)-7-isopropyl-4,8-dimethyl-2-((1-(3-(trifluoromethyl)benzoyl)azetidin-3-yl)amino)-7,8-dihydropteridin-6(5H)-one]
25 | 5.30 to 6.00 | CO[C@H](C)[C@H]1C(=O)Nc2c(C)nc(N[C@H]3C[C@@H](N(C)c4cnc(C(F)(F)F)cn4)C3)nc2N1C [Compound 651, (S)-7-((R)—1-methoxyethyl)-4,8-dimethyl-2-((cis-3-(methyl(5-(trifluoromethyl)pyrazin-2-yl)amino)cyclobutyl)amino)-7,8-dihydropteridin-6(5H)-one]
26 | ≤ 5.30 | Cc1nc(NC2CN(C(=O)c3cnccn3)C2)nc2c1NC(=O)[C@H](C(C)C)N2C [Compound 631, (S)-7-isopropyl-4,8-dimethyl-2-((1-(pyrazine-2-carbonyl)azetidin-3-yl)amino)-7,8-dihydropteridin-6(5H)-one]
27 | ≤ 5.30 | COc1ccc(O[C@H]2C[C@H](Nc3nc(C)c4c(n3)N(C)[C@@H](C)C(=O)N4C)C2)cc1OC [Compound 353, (7S)-2-((trans-3-(3,4-dimethoxyphenoxy)cyclobutyl)amino)-4,5,7,8-tetramethyl-7,8-dihydropteridin-6(5H)-one]

Row | Compound | pIC50
28 | Cc1nc(NCc2cnn(Cc3ccc(C(F)(F)F)nc3)c2)nc2c1NC(=O)[C@H](COC(C)(C)C)N2C [Compound 590, (S)-7-(tert-butoxymethyl)-4,8-dimethyl-2-(((1-((6-(trifluoromethyl)pyridin-3-yl)methyl)-1H-pyrazol-4-yl)methyl)amino)-7,8-dihydropteridin-6(5H)-one] | 6.00 to 6.52

same assay, conditions: Homo sapiens, COLO 205, 5 h, R-isomer at C2 (corresponding to C2 S-isomer); Colo 205 TCF/LEF luciferase reporter, 5 h; read-out: TCF reporter Colo205 IC50

Row | pIC50 | Compound
29 | ≤ 5.30 | CC[C@@H]1C(=O)Nc2cnc(NCc3cnn(Cc4ccc(F)cc4)c3)nc2N1C [Compound I-1634]
30 | ≤ 5.30 | CC(=O)N(Cc1cnn(Cc2ccc(C(F)(F)F)nc2)c1)c1nc(C)c2c(n1)N(C)[C@H](C)C(=O)N2 [Compound I-1640]
31 | 6.00 to 6.52 | Cc1nc(NCc2cnn(Cc3cc(C(F)(F)F)nn3C)c2)nc2c1NC(=O)[C@@H](C1CC1)N2C [Compound I-1498]
32 | > 6.52 | CCC[C@@H]1C(=O)N(C)c2cnc(NCc3cnn(Cc4cc(F)c(F)c(F)c4)c3)nc2N1C [Compound I-1348]
